Measurements as given in ChEMBL document CHEMBL3102748, “Structure-activity relationship studies on acremomannolipin A, the potent calcium signal modulator with a novel glycolipid structure 2: Role of the alditol side chain stereochemistry” (Bioorg Med Chem, 2014).
The source made the active and inactive calls. The rule behind the calls is not given here.

Test system: Schizosaccharomyces pombe
Assay: Induction of calcium signaling pathway-mediated cell growth in ppb1-deficient Schizosaccharomyces pombe h+ leu1 ura4-D18 ppb1::ura4+ at 100 uM after 3 days by filter paper disc method in presence of MgCl2
Format: functional, organism-based

Question: CCCCCCCC(=O)O[C@@H]1[C@H](OC[C@@H](O)[C@@H](O)[C@H](O)[C@H](O)CO)O[C@H](COC(=O)CCCCC)[C@@H](OC(=O)CCCCC)[C@@H]1OC(=O)CCCCC was tested. Which Activity did it give?
Answer: The Activity was “Active”.

Question: CCCCCCCC(=O)O[C@@H]1[C@H](OC[C@@H](O)[C@H](O)[C@H](O)[C@@H](O)CO)O[C@H](COC(=O)CCCCC)[C@@H](OC(=O)CCCCC)[C@@H]1OC(=O)CCCCC was tested. Which Activity did it give?
Answer: Its Activity is “Active”.

Question: For CCCCCCCC(=O)O[C@@H]1[C@H](OC[C@H](O)[C@@H](O)[C@H](O)[C@H](O)CO)O[C@H](COC(=O)CCCCC)[C@@H](OC(=O)CCCCC)[C@@H]1OC(=O)CCCCC, which Activity is on record?
Answer: The Activity was “Active”.

Question: How did the Activity turn out when CCCCCCCC(=O)O[C@@H]1[C@H](OC[C@H](O)[C@@H](O)[C@@H](O)[C@H](O)CO)O[C@H](COC(=O)CCCCC)[C@@H](OC(=O)CCCCC)[C@@H]1OC(=O)CCCCC was run?
Answer: Its Activity is “Active”.

Question: CCCCCCCC(=O)O[C@@H]1[C@H](OC[C@@H](O)[C@@H](O)[C@H](O)[C@@H](O)CO)O[C@H](COC(=O)CCCCC)[C@@H](OC(=O)CCCCC)[C@@H]1OC(=O)CCCCC was tested. Which Activity did it give?
Answer: The Activity was “Active”.

Question: For CCCCCCCC(=O)O[C@@H]1[C@H](OC[C@@H](O)[C@H](O)[C@@H](O)[C@@H](O)CO)O[C@H](COC(=O)CCCCC)[C@@H](OC(=O)CCCCC)[C@@H]1OC(=O)CCCCC, which Activity is on record?
Answer: Its Activity is “Active”.
